The source of these data is patent publication US4550107A, “Condensed diazepinones, their compositions and methods of use as pharmaceuticals” (Dr. Karl Thomae GmbH, priority 1984, dated 1985).

For orientation: IC50 means the point on the concentration scale where inhibition reaches its midpoint. High values mean lower potency, low ones higher potency. In general, ED50 refers to the dose at which the effect has come halfway, by size or by number of responders. Read a low ED50 as greater potency.

Where “and” joins values, the source holds several entries; their conditions need not be identical. Identical values can stand only once.

Series [1] deals with T1, muscarinic receptors (heart) (Rattus norvegicus, UniProt P10980).
T1 construct: The whole heart is cut up with scissors; All the organs are then homogenised in a Potter apparatus; from tissue; host or cells: rat whole heart, homogenised (1:250)
T1 sequence (P10980 1-466): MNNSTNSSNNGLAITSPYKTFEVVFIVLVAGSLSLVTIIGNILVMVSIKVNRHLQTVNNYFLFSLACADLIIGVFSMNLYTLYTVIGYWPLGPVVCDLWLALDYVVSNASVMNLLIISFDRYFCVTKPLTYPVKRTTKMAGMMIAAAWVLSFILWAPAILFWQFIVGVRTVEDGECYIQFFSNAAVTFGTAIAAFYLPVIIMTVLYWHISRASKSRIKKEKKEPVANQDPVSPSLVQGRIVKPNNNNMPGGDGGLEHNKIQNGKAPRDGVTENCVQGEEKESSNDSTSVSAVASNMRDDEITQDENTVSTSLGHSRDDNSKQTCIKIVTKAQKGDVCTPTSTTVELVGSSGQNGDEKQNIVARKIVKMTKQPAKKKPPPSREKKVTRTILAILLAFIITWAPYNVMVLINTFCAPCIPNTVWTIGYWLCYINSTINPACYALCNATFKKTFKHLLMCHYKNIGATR
Put plainly: Receptor binding tests: inhibition of specific 3H-N-methylscopolamine binding, whole heart. Further details: species or system Sprague-Dawley rats. Conditions: whole heart homogenate 1:250; 0.3 nM 3H-NMS; 30° C., 45 min, pH 7.4. As for the experimental part: (§1) B. Studies of binding to muscarinic receptors: determining the IC50 value
(§2) The organ donors are Sprague-Dawley rats weighing from 180-220 g. After the removal of the heart, stomach and cerebral cortex, all the other steps are carried out in ice-cold Hepes-HCl buffer (pH 7.4; 100 m molar NaCl, 10 m molar MgCl2). The whole heart is cut up with scissors. All the organs are then homogenised in a Potter apparatus. For the bonding test, the homogenised organs are diluted as follows:
(§3) The homogenised organs are incubated at a specific concentration of the radioligand and with a series of concentrations of the non-radioactive test substances in an Eppendorf centrifugal test tube at 30° C. Incubation lasts 45 minutes. The radioligand is 0.3 n molar ^3 H-N-methylscopolamine (^3 H-NMS). After incubation has been ended by centrifuging at 14,000 g, the radioactivity in the pellet is determined. It represents the sum of specific and non-specific binding of ^3 H-NMS. The proportion of non-specific binding is defined as the radioactivity which binds in the presence of 1 μmolar quinuclidinyl benzylate. Four measurements are made in each case. The IC50 values of the non-labeled test substances are determined graphically. They represent the concentration of test substance at which the specific binding of ^3 H-NMS to the muscarinic receptors in the various organs is inhibited by 50%.

Series [2] deals with heart rate. Put plainly: Heart rate increasing activity (tachycardia) in the conscious dog. Conditions: Canis lupus familiaris, iv; dose increasing heart rate by 50 beats per minute; conscious dogs; read-out: Tachycardia (dog) ED50. In kind it is in vivo. As for the experimental part: (§4) The methods used have the objective of confirming the selectivity of the antimuscarinic acitivity. Those substances which are selected on the basis of "in vitro" investigations are tested for:
1. tachycardiac effect in conscious dogs;
1. Heart rate increasing activity in the conscious dogs
The substances are injected intravenously and the heart rate is measured with the aid of a tachygraph. After a control period, increasing doses of the compound are administered in order to increase the heart rate. The next dose is injected when the effect of the preceding dose is no longer visible. […] Each substance is tested on 3 to 5 dogs.

In series [3] the test system is gastric acid secretion. The series is described as follows: Inhibition of gastric acid secretion in pylorus-ligated rats (Shay rat). Conditions: iv, 2 h, i.v., 5 min before pylorus ligature, volume or acid output reduced by 50%. In kind it is in vivo, male Wistar rats. As for the experimental part: as §4
2. inhibitory effect on gastric acid secretion in pylorous-ligated rats; and
2. Inhibition of secretion in rats
Increasing doses of the substance are injected intravenously into male Wistar rats (10 rats per group) 5 minutes before the ligature of the pylorus. The rats are killed 2 hours later and both the volume of gastric acid and also the "acid output" are determined by titration. The dosage of substance which reduces either the volume or the acid output by 50% is determined.

In series [4] the target is muscarinic receptors (cerebral cortex). The series is described as follows: Receptor binding tests: inhibition of specific 3H-N-methylscopolamine binding, cerebral cortex. The arrangement: species or system Sprague-Dawley rats. The following applies: cerebral cortex homogenate 1:3000; 0.3 nM 3H-NMS; 30° C., 45 min, pH 7.4. As for the experimental part: as §1, §2, §3
Series [5] is described as follows: Stability of separated diastereoisomers (reversion into the original mixture). In kind it is physicochemical. The following applies: for stability in crystalline form: temperature below the melting point. The source says:
The base-substituted condensed diazepinones of formula I according to the invention contain up to two independent chiral elements, including an asymmetric carbon atom in the side chain. The second chiral element is the acylated tricyclic moiety itself, which can occur in two mirror-image forms. The nature of the tricyclic compound determines whether the energy barrier for inversion at this center is so high that the individual isomers are stable at ambient temperature and capable of being isolated.
The title compound is prepared analogously to Example 2 from 5-(chloroacetyl)-5,10-dihydro-11H-dibenzo[b,e][1,4]diazepin-11-one and D,L-2-[(4-methyl-1-piperazinyl)methyl]-piperidine to give colorless crystals, mp. 200°-202° C. (acetonitrile/activated charcoal). According to thin layer chromatography (Polygram® SIL G/UV254; eluant: dichloromethane/ethyl acetate/cyclohexane/methanol/conc. ammonia 3.5:1.5:0.46: 0.46:0.06; RF approx. 0.25) it is a mixture of isomers in a quantity ratio of approximately 1:1. Preparative separation is carried out by the following method:
(a) By liquid chromatography (HPLC):
Mobile Phase: Methylene chloride/cyclohexane/methanol/conc. ammonia (200:210:40:0.5 v/v);
In each case, a solution (100 μl) of the diastereoisomer mixture (15.2 mg) is injected into the mobile phase (1 ml) and thus placing the substance (1.5 mg) on the column.
(b) By liquid chromatography on a Jobin-Yvon chromatospac Prep using Li Chroprep Si 60, 25-40 μm (Merck-Darmstadt, Art. 9390) under a pressure of 10 bar.

Consider `CCN(CC)CC1CCCCN1CC(=O)N1c2ccccc2C(=O)Nc2cccnc21` (racemic) [A], for which the IC50 in series [1] was 140 nM and 150 nM. Further, in series [2], the ED (increase of 50 beats per minute) worked out at 0.103 mg/kg. In addition, the ED50 in series [3] was > 10 mg/kg. As for `CN(CC1CCCCN1CC(=O)N1c2ccccc2C(=O)Nc2cccnc21)[C@H]1CC[C@H](O)CC1` (relative stereo) [K], the 50% inhibitory concentration (IC50) came out at 1100 nM in series [4] and 70 nM in series [1]. Regarding `CN1CCN(CC2CCCCN2CC(=O)N2c3ccccc3NC(=O)c3ccccc32)CC1` (single isomer, unassigned) [Isomer I, 5,10-Dihydro-5-[[2-[(4-methyl-1-piperazinyl)methyl]-1-piperidinyl]-acetyl]-11H-dibenzo[b,e][1,4]diazepin-11-one], the “stability in crystalline form” value in series [5] was “completely stable”. The half-life in series [5] (hplc mobile phase solution, ambient temperature, mobile phase methylene chloride/cyclohexane/methanol/conc. ammonia, read-out: reverts into the original mixture, t1/2) is < 216 h. As for `CN1CCN(CC2CCCCN2CC(=O)N2c3ccccc3NC(=O)c3ccccc32)CC1` (single isomer, unassigned) [Isomer II, 5,10-Dihydro-5-[[2-[(4-methyl-1-piperazinyl)methyl]-1-piperidinyl]-acetyl]-11H-dibenzo[b,e][1,4]diazepin-11-one], the “stability in crystalline form” value in series [5] was “completely stable”. Turning to `CN1CCN(CC(=O)N2c3ccccc3C(=O)Nc3cccnc32)CC1` [B], the ED (increase of 50 beats per minute) in series [2] was 0.468 mg/kg. Besides, the ED50 in series [3] was 0.4 mg/kg. `CN1C2CCC1CC(OC(=O)C(CO)c1ccccc1)C2` (centres unmarked) [C]: in series [2], the ED (increase of 50 beats per minute) amounted to 0.0077 mg/kg. For `CN(C)CC1CCCCN1CC(=O)N1c2ccccc2C(=O)Nc2cccnc21` (centres unmarked) [D], the IC50 in series [4] was 1500 nM; in series [1], 150 nM and 130 nM.

Take `CN(C)CCC1CCCCN1CC(=O)N1c2ccccc2C(=O)Nc2cccnc21` (centres unmarked) [E]: the IC50 was 1300 nM in series [4] and 170 nM in series [1]. As for `CCN(CC)CC1CCCCN1CC(=O)N1c2ccccc2NC(=O)c2ccccc21` (centres unmarked) [F], the IC50 in series [4] is 750 nM and 1000 nM; in series [1], 150 nM and 100 nM. For `CCN(CC)CC1CCCCN1CC(=O)N1c2ccccc2NC(=O)c2cscc21` (centres unmarked) [G], the results for the IC50 in series [4] and in series [1] were 2200 nM and 220 nM, respectively. As for `CCN(CC)C[C@@H]1CCCN1CC(=O)N1c2ccccc2C(=O)Nc2cccnc21` [H], the IC50 in series [4] was found to be 4500 nM; in series [1] it was 400 nM. Consider `CCN(CC)C[C@@H]1CCCN1CC(=O)N1c2ccccc2NC(=O)c2ccccc21` [I], for which the IC50 is 800 nM in series [4] and 90 nM in series [1]. For `CN(CC1CCCN(CC(=O)N2c3ccccc3C(=O)Nc3cccnc32)C1)C1CCCCC1` (centres unmarked) [L], in that order: 85 nM and 19 nM.

On to `CCN(CC)CC1CCCN(CC(=O)N2c3ccccc3NC(=O)c3ccccc32)C1` (centres unmarked) [M], for which the IC50 in series [4] stood at 100 nM; in series [1], 35 nM. For `CN(CC1CCCCN1CC(=O)N1c2ccccc2NC(=O)c2ccccc21)C1CCCCC1` (centres unmarked) [N], in that order: 50 nM and 13 nM.

`CN(CC1CCCN(CC(=O)N2c3ccccc3NC(=O)c3ccccc32)C1)C1CCCCC1` (centres unmarked) [O]: the IC50 in series [4] was 20 nM; in series [1], 2.8 nM. For `CN1CCCC1C1CCCN(CC(=O)N2c3ccccc3NC(=O)c3ccccc32)C1` (centres unmarked) [P], in that order: 120 nM and 17 nM.

Consider `CCCCN(C)CC1CCCCN1CC(=O)N1c2ccccc2NC(=O)c2ccccc21` (centres unmarked) [Q], for which the IC50 in series [4] stood at 100 nM; in series [1] it was 18 nM.
